Measured values: PMC11198769, “Enhancement of transcription efficiency by TAR-Tat system increases the functional expression of human olfactory receptors” (PLOS ONE, 2024)

Assays:
[1] = biological target: T1, OR1A1 (Homo sapiens, UniProt Q9P1Q5); assay: hOR assay (GloSensor cAMP luciferase), dose-response; assay type: cell-based
T1 construct: Lucy tag (N); FLAG (N); Rho tag (N); expressed in transfected cells; host or cells: Flp-In T-REx-293 cells stably expressing RTP1S, Gαolf and Ric8-b
T1 sequence (Q9P1Q5 1-309): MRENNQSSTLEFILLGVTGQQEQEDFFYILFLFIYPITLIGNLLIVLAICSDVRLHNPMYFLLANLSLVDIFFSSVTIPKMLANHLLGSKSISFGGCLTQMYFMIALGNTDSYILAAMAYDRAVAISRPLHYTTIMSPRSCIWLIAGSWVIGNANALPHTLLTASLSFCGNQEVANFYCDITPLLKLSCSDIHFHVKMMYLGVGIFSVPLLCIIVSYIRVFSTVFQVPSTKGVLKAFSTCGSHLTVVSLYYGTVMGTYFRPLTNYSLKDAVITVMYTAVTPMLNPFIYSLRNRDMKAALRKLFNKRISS
Description: (§1) Flp-In T-REx-293 cells stably expressing accessory proteins (RTP1S, Gαolf, and Ric8-b) were established using the Flp-In T-REx system. Accessory proteins-expressing cells were maintained in high-glucose Dulbecco’s modified Eagle medium (Sigma-Aldrich) containing 10% fetal bovine serum (Biowest) and 1% antibiotic–antimycotic (Nacalai tesque) at 37°C with 5% CO2.
(§2) The GloSensor™ Technology (Promega) was used for the luciferase assay of the hOR response. As the negative control, cells that were transfected by the pBApo-CMV neo vector and pHEK293 Ultra Expression Vector I were used as mock cells. hOR/pHEK and hOR/pBApo (50 ng/well) were transfected into the accessory proteins-expressing cell line (40000 cells/well) using Lipofectamine 2000 (Thermo Fisher Scientific) (400 nL/well) along with pGlosensor™-22F cAMP biosensor plasmid (Promega) (50 ng/well) in a 96-well plate. At 28 h posttransfection, the cells were washed with an assay buffer (140 mM NaCl, 10 mM HEPES, 5 mM KCl, 1 mM CaCl2・2H2O, 10 mM D-glucose, pH 7.5) and replaced with the assay buffer (50 μL/well) containing 2% GloSensor cAMP substrate and preincubated for 1 h at 25°C. Then, the assay buffer was added (130 μL/well). After 10 min of equilibration, the luminescence was measured (L0). Odorants diluted in 10% DMSO/assay buffer were treated (20 μL/well). After 9 min, the luminescence was measured (L9min). First, all the L9min values were subtracted by the L0 value (ΔL) and divided by the L0 value (ΔL/L0). The concentration range of the odorants was different for each odorant, but the minimum was 0.01 μM and the maximum was 3 mM. For all hORs, luciferase assays with hOR/pBApo and hOR/pHEK were conducted in the same 96-well plate each time, and luminescence was normalized to a maximum value of 100. Dose–response curve images were graphed using the Graph Pad Prism 9 software (Graph Pad Software).

[2] = biological target: T2, OR2B3 (Homo sapiens, UniProt O76000); assay: as above; assay type: cell-based; settings: OR2B3, with or without the TAR-Tat system
T2 construct: Lucy tag (N); FLAG (N); Rho tag (N); expressed in transfected cells; host or cells: Flp-In T-REx-293 cells stably expressing RTP1S, Gαolf and Ric8-b
T2 sequence (O76000 1-313): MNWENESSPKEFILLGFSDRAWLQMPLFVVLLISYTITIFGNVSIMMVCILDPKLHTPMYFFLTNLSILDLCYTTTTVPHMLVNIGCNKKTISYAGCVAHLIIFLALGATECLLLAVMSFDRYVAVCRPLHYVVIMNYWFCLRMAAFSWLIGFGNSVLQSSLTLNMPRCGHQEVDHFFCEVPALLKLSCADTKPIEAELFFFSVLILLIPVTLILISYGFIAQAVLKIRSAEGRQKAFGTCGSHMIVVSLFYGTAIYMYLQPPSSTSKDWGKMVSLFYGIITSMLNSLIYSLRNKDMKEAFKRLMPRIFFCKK
Description: as §1, §2

[3] = biological target: T3, OR8B3 (Homo sapiens, UniProt Q8NGG8); assay: as above; assay type: cell-based; settings: OR8B3, with or without the TAR-Tat system
T3 construct: Lucy tag (N); FLAG (N); Rho tag (N); expressed in transfected cells; host or cells: Flp-In T-REx-293 cells stably expressing RTP1S, Gαolf and Ric8-b
T3 sequence (Q8NGG8 1-313): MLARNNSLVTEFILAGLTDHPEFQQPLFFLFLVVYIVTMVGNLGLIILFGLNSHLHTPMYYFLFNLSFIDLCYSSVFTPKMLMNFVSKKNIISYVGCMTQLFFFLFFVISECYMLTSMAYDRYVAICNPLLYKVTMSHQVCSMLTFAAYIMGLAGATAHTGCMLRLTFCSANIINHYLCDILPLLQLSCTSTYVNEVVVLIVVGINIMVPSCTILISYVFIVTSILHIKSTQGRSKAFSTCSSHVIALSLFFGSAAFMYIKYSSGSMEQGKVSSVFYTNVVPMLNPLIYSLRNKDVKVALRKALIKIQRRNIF
Description: as §1, §2

[4] = biological target: T4, OR8B8 (Homo sapiens, UniProt Q15620); assay: as above; assay type: cell-based; settings: OR8B8, with or without the TAR-Tat system
T4 construct: Lucy tag (N); FLAG (N); Rho tag (N); expressed in transfected cells; host or cells: Flp-In T-REx-293 cells stably expressing RTP1S, Gαolf and Ric8-b
T4 sequence (Q15620 1-311): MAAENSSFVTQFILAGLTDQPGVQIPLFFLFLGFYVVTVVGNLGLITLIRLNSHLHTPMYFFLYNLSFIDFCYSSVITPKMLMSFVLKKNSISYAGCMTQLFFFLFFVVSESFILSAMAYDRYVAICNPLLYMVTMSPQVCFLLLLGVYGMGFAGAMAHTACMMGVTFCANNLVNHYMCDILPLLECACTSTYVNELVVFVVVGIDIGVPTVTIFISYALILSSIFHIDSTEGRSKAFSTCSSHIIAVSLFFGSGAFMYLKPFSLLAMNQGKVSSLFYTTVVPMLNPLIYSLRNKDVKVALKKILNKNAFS
Description: as §1, §2

[5] = biological target: T5, OR2W1 (Homo sapiens, UniProt Q9Y3N9); parameters: method as in PMID 19261596; settings: read-out: EC50 value of n-hexanal for OR2W1 reported in a previous study; cited from earlier work
T5 construct: Lucy tag (N); FLAG (N); Rho tag (N); expressed in transfected cells; host or cells: Flp-In T-REx-293 cells stably expressing RTP1S, Gαolf and Ric8-b
T5 sequence (Q9Y3N9 1-320): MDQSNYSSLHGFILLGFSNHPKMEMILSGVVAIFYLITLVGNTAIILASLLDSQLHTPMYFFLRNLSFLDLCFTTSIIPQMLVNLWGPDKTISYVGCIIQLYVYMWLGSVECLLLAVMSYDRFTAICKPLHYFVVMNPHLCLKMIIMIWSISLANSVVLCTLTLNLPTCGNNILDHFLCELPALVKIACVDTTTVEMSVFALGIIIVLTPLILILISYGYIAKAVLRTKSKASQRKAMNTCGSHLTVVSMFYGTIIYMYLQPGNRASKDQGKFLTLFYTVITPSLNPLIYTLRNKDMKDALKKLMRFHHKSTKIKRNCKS

CCCCCC=O [n-hexanal]
concentration-dependent response to n-hexanal ([1]; OR1A1, with and without the TAR-Tat system): concentration-dependent responses only with the TAR-Tat system | EC50 ([1]; OR1A1/pHEK (with TAR-Tat system), read-out: EC50 of n-hexanal concentration-response relationship): 995 µM | concentration-dependent response to n-hexanal [2]: no concentration-dependent response | concentration-dependent response to n-hexanal [3]: no concentration-dependent response | concentration-dependent response to n-hexanal [4]: no concentration-dependent response | EC50 [5]: 7.9 µM
